1 compound from patent publication US12168781B2, “Production method for T cells or NK cells, medium for culturing T cells or NK cells, method for culturing T cells or NK cells, method for maintaining undifferentiated state of undifferentiated T cells, and growth-accelerating agent for T cells or NK cells” (KIRIN HOLDINGS KABUSHIKI KAISHA, priority 2018, dated 2024) can be followed below.

For test [1], the system named is naive T cells. The experiment in a line: Proliferation of sorted naive T cells, trypan blue count. Conditions: 1 μM, naive T cells, 6, 9, 12 and 14 days, FIG. 18C. The class given is cell-based, human. The text has this:
NPL 4 reports that hierarchy exists in T cells (FIG. 18A). In this Example, a fraction in which berbamine acts in T cells was verified. As a method therefor, PBMCs (CTL, Inc.) derived from a healthy subject was washed with a staining solution (PBS containing 2% FBS), and then stained with CCR7-APC (BioLegend, 353214), CD45RA-BV510 (BioLegend, 304142), CD45RO-APC-Cy7 (BioLegend, 307228), CD95-PC-Cy7 (BioLegend, 305622), CD8β-PE (Beckman, IM2217U), and CD4-BV421 (BioLegend, 317434).
After washing, the cells were resuspended in the staining solution containing PI, and by using BD AriaII Cell Sorter (BD Bioscience), in the CD8β(+) cells, CCR7(+)CD45RA(+)CD95(−)CD45RO(−) was sorted as naive T cells, CCR7(+)CD45RA(+)CD95(+)CD45RO(+) was sorted as stem cell memory T cells, CCR7(+)CD45RA(−)CD45RO(+) was sorted as central memory T cells, and CCR7(−) CD45RA(−)CD45RO(+) was sorted as effector memory T cells.
The respective cells (about 3,000 cells/well) were seeded, and berbamine (BBM) at 1 μM or MilliQ water that is a solvent for the compound as a control was added thereto, and the cells were stimulated with CD3/CD28 Dynabeads (about 9,000 beads/well). The cells were cultured using the same culture medium as in Example 6.
After 6, 9, 12, and 14 days of culturing, the number of viable cells was counted by a trypan blue method. In a statistical analysis, a Student's t-test was used (*: p<0.05).

In test [2] the test system is T-iPS-T cells. The test is described as follows: Number of viable T-iPS-T cells under feeder-free culture (CD3/CD28 Dynabeads, Cell Count Reagent SF, absorbance 450 nm/650 nm). Type of test: cell-based, human. As to conditions: for number of viable cells (OD value): T-iPS-T cells after 1st expansion, DMSO control 0.225 ± 0.017. How it is done:
T-iPS-T cells (1,500 cells/well) after 1st expansion were seeded and cultured in RPMI-1640 medium (SIGMA, R8758) supplemented with 15% FBS (CORNING, 35-076-CV, 35076104R), 1% PSG (SIGMA, G1146), PAA (50 μg/mL, Nacalai Tesque, 03420-52), ITS-G, IL-7 (5 ng/mL), IL-12 (50 ng/mL), IL-15 (5 ng/mL), IL-18 (50 ng/mL), IL-21 (20 ng/mL), and z-VAD-fmk (10 μM). The cells were stimulated by adding CD3/CD28 Dynabeads (Gibco, 11131D, the “Dynabeads” is a registered trademark) (4,500 beads/well) thereto, and 1,080 compounds [MedChemExpress, Apoptosis Compound Library (HY-L003), Cell Cycle/DNA Damage Compound Library (HY-L004), JAK/STAT Compound Library (HY-L008), MAPK Compound Library (HY-L010), NF-kappaB Compound Library (HY-L014), PI3K/Akt/mTOR Compound Library (HY-L015), and Wnt/Hedgehog/Notch Compound Library (HY-L020)] were added thereto (one type per well) at a final concentration of 1 μM, and then, the cells were cultured at 37° C. under 5% CO2.
DMSO (0.1%) that is a solvent for the compound was used as a control. After 6 days, the number of viable cells was measured using Cell Count Reagent SF (Nacalai Tesque, 07553) and a microplate reader (SoftMax Pro 5.X, Molecular Devices, 450 nm/650 nm).
A calibration curve for cell number was set as follows. When measuring the number of viable cells, 12-point serial dilution was performed for the same cells as those used in the screening, and the cells were seeded (0 to 1,536,000 cells/well) in RPMI-1640 medium supplemented with 15% FBS, 1% PSG, PAA, ITS-G, IL-7 (5 ng/mL) and IL-15 (5 ng/mL). The number of viable cells was measured together with the screening samples, and a calibration curve for WST-8 assay was formed.
In order to further evaluate the results obtained in Example 4, reproducibility was evaluated. As a method therefor, the same method as in Example 4 was used to carry out culturing and evaluation. As compounds, 20 compounds were selected and used among the compounds used in Example 4 including berbamine, and DMSO (0.1%) that is a solvent for the compound was used as a control. Note that in a statistical analysis, a Student's t-test was used (*: p<0.05).
The effect of a berbamine derivative on the proliferation of T cells was verified. As a method therefor, T-iPS-T cells after 1st expansion were cultured in the same manner as in Example 4, and berbamine (BBM) or each of 13 types of derivatives [BBMD1 to 13, Hebei Sundia MediTech Company Ltd.] was added thereto (one type per well) at a final concentration of 0.1 nM, 1 nM, 10 nM, 100 nM, or 1 μM, and then, the cells were cultured at 37° C. under 5% CO2. DMSO (0.1%) that is a solvent for the compound was used as a control.
After culturing for 6 days, the number of viable cells was measured using Cell Count Reagent SF (Nacalai Tesque, 07553) and a microplate reader (SoftMax Pro 5. X, Molecular Devices, 450 nm/650 nm), and the OD value was used as data. Note that in a statistical analysis, a Student's t-test was used (*: p<0.05). 1.

As for `COc1cc2c3cc1Oc1c(OC)c(OC)cc4c1[C@@H](Cc1ccc(O)c(c1)Oc1ccc(cc1)C[C@@H]3N(C)CC2)N(C)CC4` [berbamine], the “number of viable cells compared with MilliQ water” value in test [1] is “significant enhancement of cell proliferation”. For the same compound, the “number of viable cells (OD value)” value was 0.257 ± 0.018 in test [2] (0.1 nM, 6 days); 0.266 ± 0.024 in test [2] (1 nM, 6 days); 0.275 ± 0.019 * in test [2] (10 nM, 6 days); 0.282 ± 0.031 * in test [2] (100 nM, 6 days); 0.505 ± 0.034 *** in test [2] (1 μM, 6 days). Also, the “number of cells compared with DMSO (reproducibility of the screening)” value in test [2] (1 μM, 20 compounds, Student's t-test, FIG. 11) is “significant increase in the number of cells”. Further, in test [2] (1 μM, 6 days, FIG. 6), the “number of viable cells, rank among the 1,080 compounds screened” value was “highest number of viable cells”.
